Assay results taken from US20230404998A1, “Combination Therapies for Treating Cancer” (ASCENTAGE PHARMA (SUZHOU) CO., LTD., priority 2020, published 2023).
Marks after values point to notes of the source that are not given here.

Tests used:
Parameters in all cases: species or system mouse
Conditions in all cases: ABL001 60 mg/kg, Ponatinib 20 mg/kg, HQP1351 20 mg/kg
[1] = tested on: Y253H/T315I orthotopic tumor model; assay: In vivo efficacy, Y253H/T315I orthotopic tumor model
Procedure: (§1) In vivo efficacy was evaluated using the syngeneic mouse model derived from BaF3 cells with T315I and/or compound mutations. Tumor models were established by intravenously injecting tumor cells (1×10^5/mouse) into the caudal vein under sterile conditions. Mice were randomized into control and treatment groups with 8-10 mice per group and start the treatment from the second day post inoculation. The animal body weights were measured twice a week. The antitumor activity curves of test articles were plotted with the treatment time (day) on the X-axis, and corresponding survival rate on the Y-axis. A Log-rank (Mental-cox) test was employed to analyze the statistical significance of any difference between the treatment group and the control group. Prism version 7 (GraphPad Software Inc., San Diego, CA) was used for all statistical analysis and for graphic presentation.

[2] = tested on: F317L/T315I orthotopic tumor model; assay: In vivo efficacy, F317L/T315I orthotopic tumor model
Procedure: as §1

[3] = tested on: E255V/T315I orthotopic tumor model; assay: In vivo efficacy, E255V/T315I orthotopic tumor model
Procedure: as §1

[4] = tested on: T315I orthotopic tumor model; assay: In vivo efficacy, T315I orthotopic tumor model
Procedure: as §1

SMILES | Median survival [1] | Survival prolongation (%) [1] [%] | Survive/Total @ 24 [1] | Median survival [2] | Survival prolongation (%) [2] [%] | Survive/Total @ 24 [2] | Median survival [3] | Survival prolongation (%) [3] [%] | Survive/Total @ D26 [3] | Median survival [4] | Survival prolongation (%) [4] [%] | Survive/Total @ D43 [4]
O=C(Nc1ccc(OC(F)(F)Cl)cc1)c1cnc(N2CC[C@@H](O)C2)c(-c2cc[nH]n2)c1 [ABL001, asciminib] | 21.0*** | 23.53 | 0/8 | 18.0 | 2.86 | 0/8 | 27.0**** | 28.57 | 0/10 | 24.5**** | 16.67 | 0/10
Cc1ccc(C(=O)Nc2ccc(CN3CCN(C)CC3)c(C(F)(F)F)c2)cc1C#Cc1cnc2cccnn12 [Ponatinib] | 20.0** | 17.65 | 0/8 | 27.0**** | 54.29 | 1/8 | 24.5**** | 16.67 | 0/10 | 27.0**** | 28.57 | 0/10
